Experimental data as given in patent publication US20090149455A1, “Use of Triazolopyrimidines for Controlling Plant Diseases on Legumes” (Bayer CropScience AG, priority 2005, published 2009).

Test: log p
Assay type: physicochemical

SMILES	log p
CC(C)Nc1c(-c2ccccc2F)c(Cl)nc2ncnn12 [Example 141]	2.42
CCCCNc1c(-c2ccc(F)cc2F)c(Cl)nc2ncnn12 [Example 149]	2.9
C=C(C)CN(CC)c1c(-c2ccc(F)cc2F)c(Cl)nc2ncnn12 [Example 93]	3.54
C[C@H](Nc1c(-c2c(Cl)c(F)cc(C(F)(F)F)c2Cl)c(Cl)nc2ncnn12)C(F)(F)F [Example 44]	3.74
CC(C)CC(C)Nc1c(-c2ccc(F)cc2F)c(Cl)nc2ncnn12 (stereo not shown) [Example 81]	3.53
CC(C)Nc1c(-c2ccc(F)c(Cl)c2)c(Cl)nc2ncnn12 [Example 140]	2.9
CC(Nc1c(-c2ccccc2F)c(Cl)nc2ncnn12)C(F)(F)F (stereo not shown) [Example 49]	2.69
CCN(CC)c1c(-c2ccccc2F)c(Cl)nc2ncnn12 [Example 18]	2.82
C[C@H](Nc1c(-c2c(F)cccc2Cl)c(Cl)nc2ncnn12)C(C)(C)C [Example 71]	3.63

Second part, the compound after the results:

log p	SMILES
3.33	CC1CN(c2c(-c3c(F)c(F)c(F)c(F)c3F)c(Cl)nc3ncnn23)CC(C)O1 (stereo not shown) [Example 206]
3.14	Fc1ccc(-c2c(Cl)nc3ncnn3c2N2CCCCC2)c(F)c1 [Example 194]
1.68	CN1CCN(c2c(-c3c(F)cc(C(F)(F)F)cc3Cl)c(Cl)nc3ncnn23)CC1 [Example 174]
2.62	Fc1ccc(-c2c(Cl)nc3ncnn3c2N2CCCC2)c(F)c1 [Example 185]
3.32	CC1CNN(c2c(-c3c(F)cccc3Cl)c(Cl)nc3ncnn23)CC1C (stereo not shown) [Example 264]
2.67	CC1CN(c2c(-c3ccccc3F)c(Cl)nc3ncnn23)CC(C)O1 (stereo not shown) [Example 162]
4.46	CC1CCCN(c2c(-c3c(F)cc(C(F)(F)F)cc3Cl)c(Cl)nc3ncnn23)C1 (stereo not shown) [Example 181]
